Reference: ChEMBL document CHEMBL1129144, “Stereoselective synthesis and biological activity of cis azetidinones as cholesterol absorption inhibitors” (1996)

Columns and labels:
Type in all cases: functional
Cricetinae gen. sp. [1] = test: Compound was tested for cholesterol reduction in liver in the cholesterol-fed hamster model after oral administration.
Cricetinae gen. sp. [2] = test: Compound was tested for % inhibition of cholesterol in the cholesterol-fed hamster model after oral administration at a dose of 10 mg/kg/day.
Cricetinae gen. sp. [3] = test: Compound was tested for % inhibition of cholesterol in the cholesterol-fed hamster model after oral administration at a dose of 3 mg/kg/day.
Cricetinae gen. sp. [4] = test: Compound was tested for % inhibition of cholesterol in the cholesterol-fed hamster model after oral administration at a dose of 100 mg/kg/day.
Cricetinae gen. sp. [5] = test: Compound was tested for % inhibition of cholesterol in the cholesterol-fed hamster model after oral administration at a dose of 25 mg/kg/day.
Cricetinae gen. sp. [6] = test: Compound was tested for cholesterol inhibition in the cholesterol-fed hamster model after oral administration.

Row | SMILES | ED50 (Cricetinae gen. sp. [1]) | Reduction (Cricetinae gen. sp. [2]) | other results
1 | COc1ccc([C@@H]2[C@H]([C@H](O)CCc3ccccc3)C(=O)N2c2ccccc2)cc1 | 0.4 mg/kg/day |  | 
2 | COc1ccc([C@@H]2[C@@H]([C@H](O)CCc3ccccc3)C(=O)N2c2ccccc2)cc1 | 1.2 mg/kg/day |  | 
3 | COc1ccc([C@@H]2[C@@H]([C@@H](O)CCc3ccccc3)C(=O)N2c2ccccc2)cc1 | 8.6 mg/kg/day |  | 
4 | COc1ccc([C@H]2[C@H]([C@H](O)CCc3ccccc3)C(=O)N2c2ccccc2)cc1 |  | 38% | 
5 | COc1ccc([C@@H]2[C@@H](CCCc3ccccc3)C(=O)N2c2ccccc2)cc1 | 0.54 mg/kg/day |  | 
6 | COc1ccc([C@H]2[C@@H]([C@H](O)CCc3ccccc3)C(=O)N2c2ccccc2)cc1 |  | 0% | 
7 | COc1ccc([C@@H]2[C@H]([C@@H](O)CCc3ccccc3)C(=O)N2c2ccccc2)cc1 |  |  | Reduction (Cricetinae gen. sp. [3]): 0%
8 | COc1ccc([C@H]2[C@@H](CCCc3ccccc3)C(=O)N2c2ccccc2)cc1 |  |  | Reduction (Cricetinae gen. sp. [4]): 0%
9 | COc1ccc([C@H]2[C@H](CCCc3ccccc3)C(=O)N2c2ccccc2)cc1 |  |  | Reduction (Cricetinae gen. sp. [5]): 0%
10 | COc1ccc(C2N(c3ccc(OC)cc3)C(=O)[C@]23CC[C@H](c2ccccc2)CC3)cc1 (stereo partly drawn) |  |  | ED50 (Cricetinae gen. sp. [6]): 3 mg/kg
11 | COc1ccc([C@H]2[C@H]([C@@H](O)CCc3ccccc3)C(=O)N2c2ccccc2)cc1 |  | 0% | 
12 | COc1ccc([C@H]2[C@@H]([C@@H](O)CCc3ccccc3)C(=O)N2c2ccccc2)cc1 |  | 22% | 
13 | COc1ccc([C@@H]2[C@H](CCCc3ccccc3)C(=O)N2c2ccccc2)cc1 | 4 mg/kg/day |  | 
